According to patent publication US6689790B2, “Substituted triazolopyridine compounds” (Hoffmann-La Roche Inc., priority 2001, dated 2004):

Molecular target: T1, human adenosine A2A receptor (Homo sapiens, UniProt P29274)
T1 construct: expressed in transfected cells; host or cells: CHO cells, semliki forest virus expression system; washed membranes
Assay: [3H]-SCH-58261 binding assay, human adenosine A2A receptor (CHO cell membranes, SPA)
Settings: [3H]-SCH-58261 displacement; list of examples 10-108; read-out: hA2a Ki
Procedure: Human Adenosine A2A Receptor
The human adenosine A2A receptor was recombinantly expressed in chinese hamster ovary (CHO) cells using the semliki forest virus expression system. Cells were harvested, washed twice by centrifugation, homogenized and again washed by centrifugation. The final washed membrane pellet was suspended in a Tris (50 mM) buffer containing 120 mM NaCl, 5 mM KCl, 2 mM CaCl2 and 10 mM MgCl2 (pH 7.4) (buffer A). […] Compounds were tested at 10 concentrations from 10 μM-0.3 nM. All assays were conducted in duplicate and repeated at least two times. Assay plates were incubated for 1 hour at room temperature before centrifugation and then bound ligand determined using a Packard Topcount scintillation counter. IC50 values were calculated using a non-linear curve fitting program and Ki values calculated using the Cheng-Prussoff equation.

T1 sequence (P29274 whole entry): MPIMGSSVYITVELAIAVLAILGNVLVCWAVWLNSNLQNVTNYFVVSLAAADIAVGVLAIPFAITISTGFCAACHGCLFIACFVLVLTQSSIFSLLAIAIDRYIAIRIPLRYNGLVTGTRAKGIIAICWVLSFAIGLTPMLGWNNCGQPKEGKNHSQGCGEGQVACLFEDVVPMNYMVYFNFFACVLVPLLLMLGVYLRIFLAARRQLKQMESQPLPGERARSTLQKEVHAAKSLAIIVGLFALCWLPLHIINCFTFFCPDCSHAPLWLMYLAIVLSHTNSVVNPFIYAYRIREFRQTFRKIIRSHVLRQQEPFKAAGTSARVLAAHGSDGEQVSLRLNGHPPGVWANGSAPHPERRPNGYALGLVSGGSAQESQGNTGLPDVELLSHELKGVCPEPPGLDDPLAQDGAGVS

SMILES | Ki
COCC1CCCN1C(=O)c1cc(N)c2nc(-c3ccccc3)nn2c1 (stereo in doubt) [Example 75, (8-Amino-2-phenyl-[1,2,4]triazolo[1,5-a]pyridin-6-yl)-((S)-2-methoxymethyl-pyrrolidin-1-yl)-methanone] | 0.413 µM
COC[C@@H]1CCCN1C(=O)c1cc(N)c2nc(-c3ccc(C)o3)nn2c1 (stereo in doubt) [Example 86, [8-Amino-2-(5-methyl-furan-2-yl)-[1,2,4]triazolo[1,5-a]pyridin-6-yl]-(2-methoxymethyl-pyrrolidin-1-yl)-methanone] | 0.23 µM
COCC1CCCN1C(=O)c1cc(N)c2nc(-c3ccc(C)s3)nn2c1 (stereo in doubt) [Example 97, [8-Amino-2-(5-methyl-thiophen-2-yl)-[1,2,4]triazolo[1,5-a]pyridin-6-yl]-((S)2-methoxymethyl-pyrrolidin-1-yl)-methanone] | 0.428 µM
Nc1cc(C(=O)N2CCCCC2)cn2nc(-c3ccccn3)nc12 [Example 27, (8-Amino-2-pyridin-2-yl-[1,2,4]triazolo[1,5-a]pyridin-6-yl)-piperidin-1-yl-methanone] | 0.548 µM
CC1CCCN1C(=O)c1cc(N)c2nc(-c3ccccn3)nn2c1 (stereo not shown) [Example 28, (8-Amino-2-pyridin-2-yl-[1,2,4]triazolo[1,5-a]pyridin-6-yl)-(2-methyl-pyrrolidin-1-yl)-methanone] | 0.369 µM
CCN(CC)C(=O)C1CCCN(C(=O)c2cc(N)c3nc(-c4ccccn4)nn3c2)C1 (stereo not shown) [Example 29, 1-(8-Amino-2-pyridin-2-yl-[1,2,4]triazolo[1,5-a]pyridine-6-carbonyl)-piperidine-3-carboxylic acid diethylamide] | 0.594 µM
CC1CCCN(C(=O)c2cc(N)c3nc(-c4ccccn4)nn3c2)C1 (stereo not shown) [Example 30, (8-Amino-2-pyridin-2-yl-[1,2,4]triazolo[1,5-a]pyridin-6-yl)-(3-methyl-piperidin-1-yl)-methanone] | 0.578 µM
CCCN(C)C(=O)c1cc(N)c2nc(-c3ccccn3)nn2c1 [Example 31, 8-Amino-2-pyridin-2-yl-[1,2,4]triazolo[1,5-a]pyridine-6-carboxylic acid methyl-propyl-amide] | 0.796 µM
CN(CCc1ccccc1)C(=O)c1cc(N)c2nc(-c3ccccn3)nn2c1 [Example 32, 8-Amino-2-pyridin-2-yl-[1,2,4]triazolo[1,5-a]pyridine-6-carboxylic acid methyl-phenethyl-amide] | 0.387 µM
CC(C)N(Cc1ccccc1)C(=O)c1cc(N)c2nc(-c3ccco3)nn2c1 [Example 36, 8-Amino-2-furan-2-yl-[1,2,4]triazolo[1,5-a]pyridine-6-carboxylic acid benzyl-isopropyl-amide] | 0.229 µM
Nc1cc(C(=O)N2CCSCC2)cn2nc(-c3ccco3)nc12 [Example 49, (8-Amino-2-furan-2-yl-[1,2,4]triazolo[1,5-a]pyridin-6-yl)-thiomorpholin-4-yl-methanone] | 0.638 µM
Nc1cc(C(=O)N2CCCCC2)cn2nc(-c3cccs3)nc12 [Example 52, (8-Amino-2-thiophen-2-yl-[1,2,4]triazolo[1,5-a]pyridin-6-yl)-piperidin-1-yl-methanone] | 0.353 µM
CC1CCCN1C(=O)c1cc(N)c2nc(-c3cccs3)nn2c1 (stereo not shown) [Example 53, (8-Amino-2-thiophen-2-yl-[1,2,4]triazolo[1,5-a]pyridin-6-yl)-(2-methyl-pyrrolidin-1-yl)-methanone] | 0.233 µM
CC1CCCCN1C(=O)c1cc(N)c2nc(-c3cccs3)nn2c1 (stereo not shown) [Example 55, (8-Amino-2-thiophen-2-yl-[1,2,4]triazolo[1,5-a]pyridin-6-yl)-(2-methyl-piperidin-1-yl)-methanone] | 0.26 µM
CCN(CC)C(=O)C1CCCN(C(=O)c2cc(N)c3nc(-c4cccs4)nn3c2)C1 (stereo not shown) [Example 56, 1-(8-Amino-2-thiophen-2-yl-[1,2,4]triazolo[1,5-a]pyridine-6-carbonyl)-piperidine-3-carboxylic acid diethylamide] | 0.684 µM
COC[C@H]1CCCN1C(=O)c1cc(N)c2nc(-c3cccs3)nn2c1 [Example 57, (8-Amino-2-thiophen-2-yl-[1,2,4]triazolo[1,5-a]pyridin-6-yl)-(2-R-methoxymethyl-pyrrolidin-1-yl)-methanone] | 0.242 µM
COC[C@@H]1CCCN1C(=O)c1cc(N)c2nc(-c3cccs3)nn2c1 [Example 58, (8-Amino-2-thiophen-2-yl-[1,2,4]triazolo[1,5-a]pyridin-6-yl)-(2-S-methoxymethyl-pyrrolidin-1-yl)-methanone] | 0.892 µM
NC(=O)[C@H]1CCCN1C(=O)c1cc(N)c2nc(-c3cccs3)nn2c1 [Example 59, 1-(8-Amino-2-thiophen-2-yl-[1,2,4]triazolo[1,5-a]pyridine-6-carbonyl)-pyrrolidine-2-R-carboxylic acid amide] | 0.215 µM
CN(C)C(=O)CN(C)C(=O)c1cc(N)c2nc(-c3cccs3)nn2c1 [Example 60, 8-Amino-2-thiophen-2-yl-[1,2,4]triazolo[1,5-a]pyridine-6-carboxylic acid dimethylcarbamoyl-methyl-methyl-amide] | 0.548 µM

Other lines, results leading:

Ki | SMILES
0.422 µM | CCN(CC)C(=O)c1cc(N)c2nc(-c3ccco3)nn2c1 [Example 33, 8-Amino-2-furan-2-yl-[1,2,4]triazolo[1,5-a]pyridine-6-carboxylic acid diethylamide]
0.37 µM | CCCN(CCC)C(=O)c1cc(N)c2nc(-c3ccco3)nn2c1 [Example 38, 8-Amino-2-furan-2-yl-[1,2,4]triazolo[1,5-a]pyridine-6-carboxylic acid dipropylamide]
0.371 µM | CCN(CC)C(=O)C1CCCN(C(=O)c2cc(N)c3nc(-c4ccco4)nn3c2)C1 (stereo not shown) [Example 40, 1-(8-Amino-2-furan-2-yl-[1,2,4]triazolo[1,5-a]pyridine-6-carbonyl)-piperidine-3-carboxylic acid diethylamide]
0.343 µM | CN(C)C(=O)CN(C)C(=O)c1cc(N)c2nc(-c3ccco3)nn2c1 [Example 44, 8-Amino-2-furan-2-yl-[1,2,4]triazolo[1,5-a]pyridine-6-carboxylic acid dimethylcarbamoyl-methyl-methyl-amide]
0.506 µM | CCN(CCOC)C(=O)c1cc(N)c2nc(-c3ccco3)nn2c1 [Example 45, 8-Amino-2-furan-2-yl-[1,2,4]triazolo[1,5-a]pyridine-6-carboxylic acid ethyl-(2-methoxy-ethyl)-amide]
0.241 µM | CCCN(C)C(=O)c1cc(N)c2nc(-c3ccco3)nn2c1 [Example 47, 8-Amino-2-furan-2-yl-[1,2,4]triazolo[1,5-a]pyridine-6-carboxylic acid methyl-propyl-amide]
0.251 µM | CN(CCc1ccccc1)C(=O)c1cc(N)c2nc(-c3ccco3)nn2c1 [Example 50, 8-Amino-2-furan-2-yl-[1,2,4]triazolo[1,5-a]pyridine-6-carboxylic acid methyl-phenethyl-amide]
0.552 µM | CCCN(CCC)C(=O)c1cc(N)c2nc(-c3cccs3)nn2c1 [Example 54, 8-Amino-2-thiophen-2-yl-[1,2,4]triazolo[1,5-a]pyridine-6-carboxylic acid dipropylamide]
0.92 µM | CCN(CCOC)C(=O)c1cc(N)c2nc(-c3cccs3)nn2c1 [Example 61, 8-Amino-2-thiophen-2-yl-[1,2,4]triazolo[1,5-a]pyridine-6-carboxylic acid ethyl-(2-methoxy-ethyl)-amide]
